# Measurements from ChEMBL document CHEMBL5143508, “Design, synthesis and biological evaluation of novel o-aminobenzamide derivatives as potential anti-gastric cancer agents in vitro and in vivo” (Eur J Med Chem, 2022).
# pIC50: −log10 of the molar value. Where “and” joins values, the source holds several entries; their conditions need not be identical. Equal entries are not always repeated. Calls of active or inactive are those of the source. The calls are words filed in the database; no cut-off is given here.
# How the values were obtained:
# HGC-27 [1] = experiment: Induction of apoptosis in human HGC-27 cells assessed as early apoptotic cells at 2 uM incubated for 48 hrs by annexin V FITC/propidium iodide staining based flow cytometry (reference value: 0.66 %); type: functional
# HGC-27 [2] = experiment: Induction of apoptosis in human HGC-27 cells assessed as late apoptotic cells at 2 uM incubated for 48 hrs by annexin V FITC/propidium iodide staining based flow cytometry (reference value: 5.14 %); type: functional
# MGC-803 [3] = experiment: Induction of apoptosis in human MGC-803 cells assessed as viable cells at 2.5 uM incubated for 48 hrs by annexin V FITC/propidium iodide staining based flow cytometry (reference value: 94.4 %); type: functional; settings: read-out: Activity
# HGC-27 [4] = experiment: Induction of apoptosis in human HGC-27 cells assessed as upregulation in cleaved caspase-9 expression at 0.5 to 8 uM incubated for 48 hrs by Western blot analysis; type: functional, cell-based; settings: dose 0.5-8 µM
# HGC-27 [5] = experiment: Induction of apoptosis in human HGC-27 cells assessed as upregulation in cleaved PARP expression at 0.5 to 8 uM incubated for 48 hrs by Western blot analysis; type: functional, cell-based; settings: dose 0.5-8 µM
# HGC-27 [6] = experiment: Induction of cell cycle arrest in human HGC-27 cells assessed as upregulation of p21 expression at 0.5 to 8 uM incubated for 48 hrs by Western blot analysis; type: functional, cell-based; settings: dose 0.5-8 µM
# SGC-7901 = experiment: cells; type: functional, cell-based; settings: Homo sapiens, SGC-7901, 72 h
# Description: Cytotoxicity against human SGC-7901 cells assessed as inhibition of cell growth incubated for 72 hrs by MTT assay
# HGC-27 [7] = experiment: cells; type: functional, cell-based; settings: Homo sapiens, HGC-27, 72 h
# Description: Cytotoxicity against human HGC-27 cells assessed as inhibition of cell growth incubated for 72 hrs by MTT assay
# HGC-27 [8] = experiment: Induction of apoptosis in human HGC-27 cells assessed as late apoptotic cells at 0.1 uM incubated for 48 hrs by annexin V FITC/propidium iodide staining based flow cytometry (reference value: 5.14 %); type: functional
# HGC-27 [9] = experiment: Induction of apoptosis in human HGC-27 cells assessed as viable cells at 0.4 uM incubated for 48 hrs by annexin V FITC/propidium iodide staining based flow cytometry (reference value: 93.0 %); type: functional; settings: read-out: Activity
# HGC-27 [10] = experiment: Induction of apoptosis in human HGC-27 cells assessed as early apoptotic cells at 1.6 uM incubated for 48 hrs by annexin V FITC/propidium iodide staining based flow cytometry (reference value: 0.66 %); type: functional
# HGC-27 [11] = experiment: Induction of apoptosis in human HGC-27 cells assessed as late apoptotic cells at 1.6 uM incubated for 48 hrs by annexin V FITC/propidium iodide staining based flow cytometry (reference value: 5.14 %); type: functional
# MGC-803 [12] = experiment: Induction of apoptosis in human MGC-803 cells assessed as early apoptotic cells at 20 uM incubated for 48 hrs by annexin V FITC/propidium iodide staining based flow cytometry (reference value: 0.42 %); type: functional
# MGC-803 [13] = experiment: Induction of cell cycle arrest in human MGC-803 cells assessed as reduction in accumulation of cells at G2/M phase at 5 to 20 uM incubated for 24 hrs by PI staining based flow cytometry analysis; type: functional; settings: dose 5-20 µM
# [14] = Acute toxicity in Kunming mouse assessed as effect on spleen pathology at 1000 mg/kg, po measured after 14 days; type: organism-based; settings: in vivo, 336 h, time 14 day
# [15] = Toxicity in BALB/c mouse xenografted with human HGC-27 cells assessed as RBC level at 150 mg/kg, po bid for 19 days; type: organism-based, Erythrocyte; settings: in vivo, 456 h, time 19 day
# [16] = Toxicity in BALB/c mouse xenografted with human HGC-27 cells assessed as hematocrit level at 150 mg/kg, po bid for 19 days; type: organism-based; settings: in vivo, 456 h, time 19 day
# [17] = Toxicity in BALB/c mouse xenografted with human HGC-27 cells assessed as lymphocyte level at 75 mg/kg, po bid for 19 days; type: organism-based; settings: in vivo, 456 h, time 19 day
# [18] = Toxicity in BALB/c mouse xenografted with human HGC-27 cells assessed as platelet level at 75 mg/kg, po bid for 19 days; type: organism-based; settings: in vivo, 456 h, time 19 day
SMILES,Activity (HGC-27 [1]) [%],Activity (HGC-27 [2]) [%],viability at 2.5 µM (MGC-803 [3]) [%],Activity (HGC-27 [4]),Activity (HGC-27 [5]),Activity (HGC-27 [6]),pIC50 (SGC-7901),pIC50 (HGC-27 [7]),Activity (HGC-27 [8]) [%],viability at 0.4 µM (HGC-27 [9]) [%],Activity (HGC-27 [10]) [%],Activity (HGC-27 [11]) [%],Activity (MGC-803 [12]) [%],Activity (MGC-803 [13]),Activity [14],Activity [15],Activity [16] [%],Activity [17],Activity [18]
O=C(NCc1ccc(NC(=O)c2ccccc2N2CCCC2)cc1)OCc1cccnc1,1.59,55.9,80.3,Active,Active,Active,,,,,,,,,,,,,
O=C(NCc1ccc(NC(=O)c2cc(F)ccc2N2CCCC2)cc1)OCc1cccnc1,,,,,,,4.35,6.55,14.2,70.7,0.31,69.4,16.8,Active,Non-Toxic,10.34 10^12/L,55.38,5.03 10^9/L and 6.57%,1057.33 10^9/L
